Test results reported in US7557108B2, “(Indol-4-yl) or (indol-5-yl)-piperazinylmethanones” (Hoffmann-La Roche Inc., priority 2007, dated 2009).

These molecules were tested against T1, human H3R (Homo sapiens, UniProt Q9Y5N1) (assay: Binding assay with 3H-(R)α-methylhistamine (competition binding, membranes of the human H3R-CHO cell line)). Details: competition with 3H(R)α-methylhistamine (1 nM), Ki calculated from IC50 by Cheng-Prusoff.
T1 construct: expressed in transfected cells; host or cells: CHO cells
T1 sequence (Q9Y5N1 whole entry): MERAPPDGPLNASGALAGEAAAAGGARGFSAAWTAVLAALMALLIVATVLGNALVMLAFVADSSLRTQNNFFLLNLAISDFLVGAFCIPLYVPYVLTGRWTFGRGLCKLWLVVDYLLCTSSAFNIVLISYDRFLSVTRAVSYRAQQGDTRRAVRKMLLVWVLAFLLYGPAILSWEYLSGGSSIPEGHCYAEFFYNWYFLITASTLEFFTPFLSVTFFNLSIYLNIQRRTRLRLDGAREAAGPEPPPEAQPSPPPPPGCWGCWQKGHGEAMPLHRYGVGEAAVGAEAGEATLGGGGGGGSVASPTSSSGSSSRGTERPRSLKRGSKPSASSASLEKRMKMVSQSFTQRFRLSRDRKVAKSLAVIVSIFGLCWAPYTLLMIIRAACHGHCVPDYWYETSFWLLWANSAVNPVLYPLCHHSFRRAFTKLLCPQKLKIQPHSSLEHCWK
Protocol: Binding Assay With ^3H—(R)α-methylhistamine
Saturation binding experiments were performed using HR3-CHO membranes prepared as described in Takahashi, K, Tokita, S., Kotani, H. (2003) J. Pharmacol. Exp. Therapeutics 307, 213-218.
An appropriate amount of membrane (60 to 80 μg protein/well) was incubated with increasing concentrations of ^3H(R)α-Methylhistamine di-hydrochloride (0.10 to 10 nM). Non specific binding was determined using a 200 fold excess of cold (R)α-Methylhistamine dihydrobromide (500 nM final concentration). The incubation was carried out at room temperature (in deep-well plates shaking for three hours). The final volume in each well was 250 μl. The incubation was followed by rapid filtration on GF/B filters (pre-soaked with 100 μl of 0.5% PEI in Tris 50 mM shaking at 200 rpm for two hours). The filtration was made using a cell-harvester and the filter plates were then washed five times with ice cold washing buffer containing 0.5 M NaCl. After harvesting, the plates were dried at 55° C. for 60 min, then we added scintillation fluid (Microscint 40, 40 microl in each well) and the amount of radioactivity on the filter was determined in Packard top-counter after shaking the plates for two hours at 200 rpm at room temperature.
Binding Buffer: 50 mM Tris-HCl pH 7.4 and 5 mM MgCl2×6H2O pH 7.4. Washing Buffer: 50 mM Tris-HCl pH 7.4 and 5 mM MgCl2×6H2O and 0.5 M NaCl pH 7.4.
Indirect measurement of affinity of H3R inverse agonists: twelve increasing concentrations (ranging from 10 μM to 0.3 nM) of the selected compounds were always tested in competition binding experiments using membrane of the human H3R—CHO cell line. An appropriate amount of protein, e.g. approximately 500 cpm binding of RAMH at Kd, were incubated for 1 hour at room temperature in 250 μl final volume in 96-well plates in presence of ^3H(R)α-methylhistamine (1 nM final concentration=Kd). Non-specific binding was determined using a 200 fold excess of cold (R)α-methylhistamine dihydrobromide.
All compounds were tested at a single concentration in duplicate. […] The concentration at which 50% inhibition of the radioligand ^3H(R)α-methylhistamine is obtained (the IC50) is determined from the linear regression of a plot of the logarithm of the concentration versus percent inhibition measured for the different concentrations. Ki's were calculated from IC50 based on Cheng-Prusoff equation (Cheng, Y, Prusoff, W H (1973) Biochem Pharmacol 22, 3099-3108): Ki=IC50/[1+D/Kd] wherein D is the concentration of the radioligand and Kd is the binding constant for the radioligand binding to the receptor under the conditions used in the competition experiment.

In order of falling Ki:
1. CC(C(=O)c1ccccc1)n1ccc2c(C(=O)N3CCN(C4CCCC4)CC3)cccc21 (stereo not shown) [Example 34, 2-[4-(4-Cyclopentyl-piperazine-1-carbonyl)-indol-1-yl]-1-phenyl-propan-1-one]  93.5 nM
2. CC(C)N1CCN(C(=O)c2ccc3c(ccn3CC3CCCC3)c2)CC1 [Example 1, (1-Cyclopentylmethyl-1H-indol-5-yl)-(4-isopropyl-piperazin-1-yl)-methanone]  84.4 nM
3. O=C(c1ccc2c(ccn2S(=O)(=O)c2cccs2)c1)N1CCN(C2CCCC2)CC1 [Example 20, (4-cyclopentyl-piperazin-1-yl)-[1-(thiophene-2-sulfonyl)-1H-indol-5-yl]-methanone]  52.2 nM
4. O=C(c1cccc2c1ccn2Cc1ccc(F)cc1Cl)N1CCN(C2CCCC2)CC1 [Example 41, [1-(2-chloro-4-fluoro-benzyl)-1H-indol-4-yl]-(4-cyclopentyl-piperazin-1-yl)-methanone]  17.4 nM
